Patent US20110105397A1, “METHOD FOR TREATING HEART FAILURE WITH STRESSCOPIN-LIKE PEPTIDES” (priority 2009, published 2011)

Tested on: anaesthetized mongrel dogs
Assay: Hemodynamic, angiographic, echocardiographic profile in anaesthetized healthy dogs, IV bolus
Format: in vivo, dog
Procedure: The effects of h-SCP (SEQ ID NO: 1) on cardiovascular function were also assessed in anaesthetized mongrel dogs following intravenous bolus and 30-minute infusions. Hemodynamic and left ventricular systolic and diastolic function was evaluated using conventional hemodynamic, angiographic, echocardiographic, and radiographic methods with the results summarized in Table 16.

Substance: H-TKFTLSLDVPTNIMNLLFNIAKAKNLRAQAAANAHLMAQI-NH2 [SEQ ID NO: 1, TKFTLSLDVPTNIMNLLFNIAKAKNLRAQAAANAHLMAQI-NH2]
- CO (Cardiac output) (IV bolus 0.13 μg/kg): 2.19 L/min
- HR (Heart rate) (IV bolus 0.13 μg/kg): 73 beats/min
- LV dP/dt (LV contractility) (IV bolus 0.13 μg/kg): 1546 mmHg/sec
- LVEDA (LV end diastolic area) (IV bolus 0.13 μg/kg): 12.9 cm^2
- LVEDV (LV end diastolic volume) (IV bolus 0.13 μg/kg): 55 mL
- LVEF (LV ejection fraction) (IV bolus 0.13 μg/kg): 55%
- LVESA (LV end systolic area) (IV bolus 0.13 μg/kg): 6.9 cm^2
- LVESV (LV end systolic volume) (IV bolus 0.13 μg/kg): 25 mL
- LVFAS (LV fractional area of shortening) (IV bolus 0.13 μg/kg): 46%
- PSAP (Peak systolic aortic pressure) (IV bolus 0.13 μg/kg): 92 mmHg
- SV (Stroke volume) (IV bolus 0.13 μg/kg): 30 mL
- increase in heart rate (largest change) (IV bolus 0.13 μg/kg to 13.1 μg/kg): 45%
- CO (Cardiac output) (IV bolus 1.3 μg/kg): 2.56 L/min
- HR (Heart rate) (IV bolus 1.3 μg/kg): 85 beats/min
- LV dP/dt (LV contractility) (IV bolus 1.3 μg/kg): 1606 mmHg/sec
- LVEDA (LV end diastolic area) (IV bolus 1.3 μg/kg): 12.7 cm^2
- LVEDV (LV end diastolic volume) (IV bolus 1.3 μg/kg): 54 mL
- LVEF (LV ejection fraction) (IV bolus 1.3 μg/kg): 57%
- LVESA (LV end systolic area) (IV bolus 1.3 μg/kg): 6.5 cm^2
- LVESV (LV end systolic volume) (IV bolus 1.3 μg/kg): 23 mL
- LVFAS (LV fractional area of shortening) (IV bolus 1.3 μg/kg): 49%
- PSAP (Peak systolic aortic pressure) (IV bolus 1.3 μg/kg): 91 mmHg
- SV (Stroke volume) (IV bolus 1.3 μg/kg): 30 mL
- CO (Cardiac output) (IV bolus 2.6 μg/kg): 2.72 L/min
- HR (Heart rate) (IV bolus 2.6 μg/kg): 92 beats/min
- LV dP/dt (LV contractility) (IV bolus 2.6 μg/kg): 1675 mmHg/sec
- LVEDA (LV end diastolic area) (IV bolus 2.6 μg/kg): 12.5 cm^2
- LVEDV (LV end diastolic volume) (IV bolus 2.6 μg/kg): 52 mL
- LVEF (LV ejection fraction) (IV bolus 2.6 μg/kg): 57%
- LVESA (LV end systolic area) (IV bolus 2.6 μg/kg): 6.2 cm^2
- LVESV (LV end systolic volume) (IV bolus 2.6 μg/kg): 22 mL
- LVFAS (LV fractional area of shortening) (IV bolus 2.6 μg/kg): 50%
- PSAP (Peak systolic aortic pressure) (IV bolus 2.6 μg/kg): 90 mmHg
- SV (Stroke volume) (IV bolus 2.6 μg/kg): 30 mL
- CO (Cardiac output) (IV bolus 4.4 μg/kg): 2.80 L/min
- HR (Heart rate) (IV bolus 4.4 μg/kg): 94 beats/min
- LV dP/dt (LV contractility) (IV bolus 4.4 μg/kg): 1682 mmHg/sec
- LVEDA (LV end diastolic area) (IV bolus 4.4 μg/kg): 12.4 cm^2
- LVEDV (LV end diastolic volume) (IV bolus 4.4 μg/kg): 51 mL
- LVEF (LV ejection fraction) (IV bolus 4.4 μg/kg): 58%
- LVESA (LV end systolic area) (IV bolus 4.4 μg/kg): 6.0 cm^2
- LVESV (LV end systolic volume) (IV bolus 4.4 μg/kg): 22 mL
- LVFAS (LV fractional area of shortening) (IV bolus 4.4 μg/kg): 52%
- PSAP (Peak systolic aortic pressure) (IV bolus 4.4 μg/kg): 90 mmHg
- SV (Stroke volume) (IV bolus 4.4 μg/kg): 30 mL
- CO (Cardiac output) (IV bolus 13.1 μg/kg): 2.86 L/min
- HR (Heart rate) (IV bolus 13.1 μg/kg): 107 beats/min
- LV dP/dt (LV contractility) (IV bolus 13.1 μg/kg): 1760 mmHg/sec
- LVEDA (LV end diastolic area) (IV bolus 13.1 μg/kg): 11.4 cm^2
- LVEDV (LV end diastolic volume) (IV bolus 13.1 μg/kg): 46 mL
- LVEF (LV ejection fraction) (IV bolus 13.1 μg/kg): 60%
- LVESA (LV end systolic area) (IV bolus 13.1 μg/kg): 5.2 cm^2
- LVESV (LV end systolic volume) (IV bolus 13.1 μg/kg): 18 mL
- LVFAS (LV fractional area of shortening) (IV bolus 13.1 μg/kg): 53%
- PSAP (Peak systolic aortic pressure) (IV bolus 13.1 μg/kg): 88 mmHg
- SV (Stroke volume) (IV bolus 13.1 μg/kg): 28 mL
